{"source": "PubChem BioAssay AID1035473", "about": "(Broad Institute, 2014)", "tested_on": "A549 viability, CellTiter-Glo ATP luminescence, 72 h", "experiment": "A549 cell cytotoxicity, dose response, cytotoxicity control, dry powder samples (AID 1035473)"}
{"smiles": "Cn1c(NC(=O)c2ccccc2)nc2c3cnccc3ccc21", "values": [{"measurement": "AC50", "result": 83.9, "unit": "µM"}]}
